Each structure is given as a SMILES string.

The target in experiment [1] is recombinant APS3v-HLA-DR3 (Homo sapiens, UniProt P01903+P01911, A100K/A102G/A103R/F55Y/I96L/K41T/P40S/Q125H/Q178H/Q39Y/R42S/S66N/T106N/W38E/Y61H). Put plainly: ELISA inhibition assay of biotinylated peptide binding to recombinant APS3v-HLA-DR3. As for the experimental part:
An in vitro binding assay was performed. […] On the day before the immunoassay was performed, a 96-well DELFIA yellow plate (PerkinElmer Life Science) was coated overnight with 20 μg/ml of L243 antibody [Hybridoma was purchased from ATCC, catalogue number HB-55, and IgG was purified by QED Bioscience (San Diego, CA)] in bicarbonate buffer, pH 9.6 (Sigma-Aldrich). L243 is a monoclonal antibody that specifically recognizes the DRa chain of HLA-DR when it is properly folded and complexed with the b chain. The plate was then washed with DELFIA wash buffer (diluted 1:25 from DELFIA wash concentrate, PerkinElmer) to wash off the excess L243 antibody. Blocking was performed using 2.5% BSA in PBS at room temperature for 1 h. After washing 4 times, 100 μl of the pre-incubated mix (containing recombinant APS3v-HLA-DR3 protein, APO, and small molecules) were added onto the plate and shaken at slow speed for 2 h at room temperature. After washing 4 times, DELFIA Europium-labeled streptavidin (PerkinElmer) diluted in DELFIA assay buffer (PerkinElmer) was added for 30 min and shaken at slow speed at room temperature. After washing for 6 times, DELFIA Enhancement Solution was added for 1 h until the optimal signal was reached. Time-resolved fluorescence was measured using the BMG reader (BMG Labtech, Cary, NC). A virtual screen identified 100 small molecules that were predicted to block the unique APS3v-HLA-DR3 pocket. To produce a manageable selection of compounds for validation we clustered the 100 compounds by their simplified molecular input line entry system (SMILES) similarity into 20 clusters. Of the 20 clusters we selected the top scoring members in each cluster. We have enhanced this list to include a total of 11 compounds that blocked APS3v-HLA-DR3, the key HLA-DR3 pocket that triggers APS3v. We tested the selected 11 small molecules identified by the virtual screen in our in vitro ELISA, to test whether the 11 small molecules can block APO peptide (the strongest known peptide binder to HLA-DR3) binding to recombinant APS3v-HLA-DR3. Of the 4 validated small molecules we selected S53 for further testing because it is the only one that has been used in humans before. […] ELISA was performed as previously described.
(In an ELISA, binding on a coated surface is turned into a signal by an enzyme label.)

Experiment [2] has as its system splenocytes and draining lymph node cells of immunized NOD-DR3 mice. Put plainly: Small molecule inhibition of cytokine production ex vivo (Milliplex). The class given is cell-based, humanized NOD-DR3 mice. As for the experimental part: Cytokine Assays: Milliplex mouse cytokines/chemokine magnetic panel (Catalog no. MCYTOMAG-70K, EMD Millipore Corporation, Billerica, MA) was used to assay the cytokines, as described in the art. Briefly, splenocytes were plated at 2×10^6 cells per well in 500 μl of medium (RPMI/10% FBS). Supernatants from stimulated lymphocytes were collected 48 h after stimulation with peptides and stored in −80° C. until the assay was performed. The 96-well plate supplied in the kit was washed with the wash buffer supplied and the plate was shaken for 10 min at room temperature. Standards and quality controls were added, followed by the samples. The pre-mixed beads (Interferon gamma and IL-2) were sonicated, vortexed and added to the wells. After shaking the plate overnight at 4° C., the plate was washed twice with wash buffer. Detection antibodies were added for 1 h at room temperature, and Streptavidin-Phycoerythrin was added for 30 min at room temperature. The plate was washed twice and sheath fluid was added to resuspend the beads for 5 min before reading in Luminex 200 with xPONENT software (Luminex, Austin, Texas).
Small Molecule Inhibition of Cytokine Production Ex Vivo: Eight NOD-DR3 mice were immunized with the three thyroidal/islet peptides. Upon sacrifice, splenocytes were incubated with 1 μM of small molecules (S5, S9, S15, S53) together with TPO.758 (20 μg/ml), GAD.492 (20 μg/ml) or Tg.1571 (20 μg/ml) respectively to assess the blockade of these peptides' presentation by the tested small molecules. Supernatants from stimulated lymphocytes were collected 48 h after stimulation with peptides and small molecules, and stored in −80° C. until the cytokine assay was performed. […]

recombinant APS3v-HLA-DR3, sequence (P01911 30-227 W38E/Q39Y/P40S/K41T/R42S/F55Y/Y61H/S66N/I96L/A100K/A102G/A103R/T106N/Q125H/Q178H): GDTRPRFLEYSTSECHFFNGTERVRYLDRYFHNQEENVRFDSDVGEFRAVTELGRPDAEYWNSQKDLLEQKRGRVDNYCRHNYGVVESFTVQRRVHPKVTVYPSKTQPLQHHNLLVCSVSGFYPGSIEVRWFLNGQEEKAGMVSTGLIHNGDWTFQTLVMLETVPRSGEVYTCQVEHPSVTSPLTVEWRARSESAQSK
recombinant APS3v-HLA-DR3, sequence (P01903 26-216): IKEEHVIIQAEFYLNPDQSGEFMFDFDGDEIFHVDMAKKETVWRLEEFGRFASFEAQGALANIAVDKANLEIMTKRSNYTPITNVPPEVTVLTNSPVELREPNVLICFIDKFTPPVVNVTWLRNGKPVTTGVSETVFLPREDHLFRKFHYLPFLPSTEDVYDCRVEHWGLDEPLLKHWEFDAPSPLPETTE

As to `COc1ccc2cc1Oc1ccc(cc1)C[C@H]1c3c(cc4c(c3Oc3cc5c(cc3OC)CCN(C)[C@@H]5C2)OCO4)CCN1C` [S53, Cepharanthine], in experiment [1] (ELISA inhibition assay, final concentration 0.4 mM), the “inhibition of binding of the 3 peptides (TPO.758, GAD.492, Tg.1571) to the HLA-DR3 pocket” value is listed as “significant inhibition of binding for all 3 peptides”. For the same molecule, in experiment [1] (decreasing doses 0.4 mM, 0.2 mM, 0.1 mM, 0.05 mM), the “blocking of binding of biotinylated APO, TPO.758, GAD.492 and Tg.1571 to APS3v-HLA-DR3” value is reported as “blocked the binding of each peptide in a dose-dependent manner”. Further, in experiment [2] (1 μM small molecule + Tg.1571 20 μg/ml, 48 h), the “IFN-g production in response to Tg.1571” value is given as “did not significantly reduce”. The “inhibition of T-cell activation to all 3 peptides (production of IFNγ and IL-2)” value in experiment [2] (1 micromolar, Tg.1571, GAD.492, TPO.758) is listed as “consistently inhibited T-cell activation to all 3 peptides”.

The values are drawn from patent US20240342158A1, “METHOD OF TREATING AND/OR PREVENTING TYPE 1 DIABETES WITH CEPHARANTHINE” (ALBERT EINSTEIN COLLEGE OF MEDICINE, priority 2021, published 2024).
